Here are results for 38 molecules from patent publication US11535607B2, “Isoindolines as HDAC inhibitors” (Valo Health, Inc., priority 2018, dated 2022).

Each structure is given as a SMILES string. pIC50: −log10 of the molar value. Structures can show the parent of a compound that is named as a salt.

Broadly, the pIC50 is the IC50 on a negative log10 scale, so that one unit is a factor of ten.

full-length human HDAC11, sequence (Q96DB2 whole entry): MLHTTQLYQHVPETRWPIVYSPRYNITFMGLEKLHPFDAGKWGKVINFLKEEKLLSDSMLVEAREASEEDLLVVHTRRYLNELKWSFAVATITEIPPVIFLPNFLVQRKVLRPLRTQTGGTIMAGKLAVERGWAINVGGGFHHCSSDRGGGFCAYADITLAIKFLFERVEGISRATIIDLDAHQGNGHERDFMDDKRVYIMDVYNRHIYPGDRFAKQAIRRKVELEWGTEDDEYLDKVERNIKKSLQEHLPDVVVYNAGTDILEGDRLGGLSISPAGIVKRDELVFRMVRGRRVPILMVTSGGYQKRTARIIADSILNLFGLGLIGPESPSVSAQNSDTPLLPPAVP

In the assay the target is full-length human HDAC11 (Homo sapiens (Human), UniProt Q96DB2). In words: Probe binding HDAC11 time resolved fluorescence (TRF) assay. The conditions noted are these: Table 2, read-out: HDAC11 IC50 Range. Here is the method:
The probe binding HDAC11 assay was performed using a time resolved fluorescence (TRF) assay format. Recombinant N-terminal GST tag full-length human HD AC 11 was expressed and purified from baculovirus in Sf9 insect cells (SignalChem, #H93-30G-1000). […] 4 μL of 2× probe and 2× anti-GST Terbium (Cisbio, #61GSTXLB) was added to assay plates followed by 4 μL of 2×HDAC11.
Data from HD AC 11 Assays were reported as percent inhibition (inh) compared with control wells based on the following equation: % inh=1−((FLU−AveLow)/(AveHigh−AveLow)) where FLU=measured time resolved fluorescence. AveLow=average time resolved fluorescence of no enzyme control (n=32). AveHigh=average time resolved fluorescence of DMSO control (n=32). IC50 values were determined by curve fitting of the standard 4 parameter logistic fitting algorithm included in the Activity Base software package: IDBS XE Designer Model205. Data is fitted using the Levenburg Marquardt algorithm.
`O=C(NO)c1cccc2c1CN(c1ccc3c(c1)OCCN3)C2` [Compound 9-1, 2-(3,4-dihydro-2H-benzo[b][1,4]oxazin-7-yl)-N-hydroxyisoindoline-4-carboxamide hydrochloride]: the pIC50 is 6.00 to 6.30.

Take `CC1(C)c2cccc(C(=O)NO)c2CN1C(=O)Nc1cncc(C(F)(F)F)c1` [Compound 30-4, N4-hydroxy-1,1-dimethyl-N2-(5-(trifluoromethyl)pyridin-3-yl)isoindoline-2,4-dicarboxamide]: the pIC50 was less than 6.00.

Regarding `CC1(C)c2cccc(C(=O)NO)c2CN1C(=O)Nc1cc(C(F)(F)F)ccn1` [Compound 30-5, N4-hydroxy-1,1-dimethyl-N2-(4-(trifluoromethyl)pyridin-2-yl)isoindoline-2,4-dicarboxamide], the pIC50 is greater than 6.30.

Regarding `CC1(C)c2cccc(C(=O)NO)c2CN1C(=O)Nc1ccc(C(F)(F)F)nc1` [Compound 30-1, N4-hydroxy-1,1-dimethyl-N2-(6-(trifluoromethyl)pyridin-3-yl)isoindoline-2,4-dicarboxamide], the pIC50 is 6.00 to 6.30.

Regarding `O=C(NO)c1cccc2c1CN(c1nc3cccnc3o1)C2` [Compound 6-2, N-hydroxy-2-(oxazolo[5,4-b]pyridin-2-yl)isoindoline-4-carboxamide], the pIC50 is less than 6.00.

In the case of `O=C(NO)c1cccc2c1NC(c1ccc(C(F)(F)F)cc1)C2` (centres unmarked) [Compound 38-1, N-hydroxy-2-(4-(trifluoromethyl)phenyl)indoline-7-carboxamide], the pIC50 was 6.00 to 6.30.

As to `CC1(C)c2cccc(C(=O)NO)c2CN1C(=O)Nc1cccc(C(F)(F)F)n1` [Compound 30-6, N4-hydroxy-1,1-dimethyl-N2-(6-(trifluoromethyl)pyridin-2-yl)isoindoline-2,4-dicarboxamide], the pIC50 is less than 6.00.

As for `CC1(C)c2cccc(C(=O)NO)c2CN1c1nc2c(o1)CCC(C(F)(F)F)C2` (centres unmarked) [Compound 19-1, N-hydroxy-1,1-dimethyl-2-[5-(trifluoromethyl)-4,5,6,7-tetrahydro-1,3-benzoxazol-2-yl]-2,3-dihydro-1H-isoindole-4-carboxamide], the pIC50 was greater than 6.30.

For the molecule `O=C(NO)c1cccc2c1N[C@H](c1ccc(C(F)(F)F)cc1)C2` [Compound 39-2, (S)—N-hydroxy-2-(4-(trifluoromethyl)phenyl)indoline-7-carboxamide], the pIC50 is less than 6.00.

`O=C(NO)c1cccc2c1CN(c1nc3c([nH]1)C[C@@H](C(F)(F)F)CC3)C2` (single isomer, unassigned) [Compound 2-2, hydrochloride]: the pIC50 is greater than 6.30.

Turning to `O=C(NO)c1cccc2c1CN(c1ncc3ccccc3n1)C2` [Compound 7-1, N-hydroxy-2-(quinazolin-2-yl)isoindoline-4-carboxamide], the pIC50 was less than 6.00.

Consider `CC1(C)c2cccc(C(=O)NO)c2N[C@H]1c1ccc(C(F)(F)F)cc1` [Compound 40-5, (S)-N-hydroxy-3,3-dimethyl-2-(4-(trifluoromethyl)phenyl)indoline-7-carboxamide], for which the pIC50 is 6.00 to 6.30.

Consider `O=C(NO)c1cccc2c1CN(c1ccc3c(c1)NCCO3)C2` [Compound 9-2, 2-(3,4-dihydro-2H-benzo[b][1,4]oxazin-6-yl)-N-hydroxyisoindoline-4-carboxamide], for which the pIC50 is less than 6.00.

Take `CC1(C)c2cccc(C(=O)NO)c2CN1c1ccc(C(F)(F)F)c(C#N)n1` [Compound 27-1, 2-(6-cyano-5-(trifluoromethyl)pyridin-2-yl)-N-hydroxy-1,1-dimethylisoindoline-4-carboxamide]: the pIC50 was greater than 6.30.

Regarding `CC1(C)c2cccc(C(=O)NO)c2CN1c1ccc2ccccc2n1` [Compound 22-5, N-hydroxy-1,1-dimethyl-2-(quinolin-2-yl)isoindoline-4-carboxamide], the negative-log IC50 (pIC50) is greater than 6.30.

Take `O=C(NO)c1cccc2[nH]c(-c3ccc(C(F)(F)F)cc3)cc12` [Compound 37-2, N-hydroxy-2-(4-(trifluoromethyl)phenyl)-1H-indole-4-carboxamide]: the pIC50 was 6.00 to 6.30.

On to `CC1(C)c2cccc(C(=O)NO)c2N[C@@H]1c1ccc(C(F)(F)F)cc1` [Compound 40-6, (R)-N-hydroxy-3,3-dimethyl-2-(4-(trifluoromethyl)phenyl)indoline-7-carboxamide], for which the pIC50 was less than 6.00.

On to `O=C(NO)c1cccc2c1CN(c1cnc3cccnc3c1)C2` [Compound 8-1, N-hydroxy-2-(1,5-naphthyridin-3-yl)isoindoline-4-carboxamide], for which the pIC50 is less than 6.00.

As for `CC1(C)c2cccc(C(=O)NO)c2CN1c1nc2ccccc2o1` [Compound 25-1, 2-(benzo[d]oxazol-2-yl)-N-hydroxy-1,1-dimethylisoindoline-4-carboxamide], the pIC50 was greater than 6.30.

Turning to `CC1(C)c2cccc(C(=O)NO)c2N[C@@H]1c1ccc(C(F)(F)F)cn1` [Compound 40-2, (S)—N-hydroxy-3,3-dimethyl-2-(5-(trifluoromethyl)pyridin-2-yl)indoline-7-carboxamide], the pIC50 was greater than 6.30.

Regarding `CC1(C)c2cccc(C(=O)NO)c2CN1C(=O)Nc1cc2c(cn1)CCCC2` [Compound 31-1, N4-hydroxy-1,1-dimethyl-N2-(5,6,7,8-tetrahydroisoquinolin-3-yl)isoindoline-2,4-dicarboxamide], the pIC50 was 6.00 to 6.30.

As for `CCC(C(=O)N1Cc2cccc(C(=O)NO)c2C1)c1ccc(OC)cc1` (centres unmarked) [Compound 28-3, N-hydroxy-2-(2-(4-methoxyphenyl)butanoyl)isoindoline-4-carboxamide], the pIC50 is less than 6.00.

As to `CC1(C)c2cccc(C(=O)NO)c2CN1c1nc2nc(C(F)(F)F)ccc2o1` [Compound 26-1, N-hydroxy-1,1-dimethyl-2-(5-(trifluoromethyl)oxazolo[4,5-b]pyridin-2-yl)isoindoline-4-carboxamide], the pIC50 is greater than 6.30.

Take `CC1(C)c2cccc(C(=O)NO)c2CN1C(=O)c1cccc(C(F)(F)F)c1` [Compound 28-2, N-hydroxy-1,1-dimethyl-2-(3-(trifluoromethyl)benzoyl)isoindoline-4-carboxamide]: the pIC50 is less than 6.00.

As for `O=C(NO)c1cccc2c1CN(C(=O)c1ccccc1)C2` [Compound 41-1, 2-benzoyl-N-hydroxyisoindoline-4-carboxamide], the pIC50 was less than 6.00.

Take `O=C(NO)c1cccc2c1CN(c1nc3c([nH]1)C[C@H](C(F)(F)F)CC3)C2` (single isomer, unassigned) [Compound 2-1, hydrochloride]: the pIC50 is greater than 6.30.

As for `CC1(C)c2cccc(C(=O)NO)c2CN1c1nc2cc(C(F)(F)F)ccc2s1` [Compound 20-2, N-hydroxy-1,1-dimethyl-2-(5-(trifluoromethyl)benzo[d]thiazol-2-yl)isoindoline-4-carboxamide], the pIC50 was greater than 6.30.

With `COCCn1c(N2Cc3cccc(C(=O)NO)c3C2)nc2ccccc21` [Compound 1-7, N-hydroxy-2-(1-(2-methoxyethyl)-1H-benzo[d]imidazol-2-yl)isoindoline-4-carboxamide], the pIC50 is less than 6.00.

For the molecule `COc1ccc(CN2Cc3cccc(C(=O)NO)c3C2)cc1` [Compound 41-2, N-hydroxy-2-(4-methoxybenzyl)isoindoline-4-carboxamide], the pIC50 was less than 6.00.

`O=C(NO)c1cccc2c1N[C@@H](c1ccc(C(F)(F)F)cc1)C2` [Compound 39-1, (R)—N-hydroxy-2-(4-(trifluoromethyl)phenyl)indoline-7-carboxamide]: the pIC50 is greater than 6.30.

Regarding `O=C(NO)c1cccc2c1CN(c1nc3cc(C(F)(F)F)cc(-c4ccccc4)c3[nH]1)C2` [Compound 35-1, N-hydroxy-2-(7-phenyl-5-(trifluoromethyl)-1H-benzo[d]imidazol-2-yl)isoindoline-4-carboxamide], the pIC50 was 6.00 to 6.30.

On to `CC1(C)c2cccc(C(=O)NO)c2CN1c1ccc2cc(C(F)(F)F)ccc2n1` [Compound 23-1, N-hydroxy-1,1-dimethyl-2-(6-(trifluoromethyl)quinolin-2-yl)isoindoline-4-carboxamide], for which the pIC50 is greater than 6.30.

For the molecule `O=C(NO)c1cccc2c1CN(c1nc3ncccc3o1)C2` [Compound 5-1, N-hydroxy-2-(oxazolo[4,5-b]pyridin-2-yl)isoindoline-4-carboxamide hydrochloride], the pIC50 was greater than 6.30.

As for `O=C(NO)c1cccc2c1CN(c1nc3c(o1)CCC(C(F)(F)F)C3)C2` (centres unmarked) [Compound 16-1, N-hydroxy-2-(5-(trifluoromethyl)-4,5,6,7-tetrahydrobenzo[d]oxazol-2-yl)isoindoline-4-carboxamide], the pIC50 is greater than 6.30.

On to `O=C(NO)c1cccc2cc(-c3ccc(C(F)(F)F)cc3)[nH]c12` [Compound 37-1, N-hydroxy-2-(4-(trifluoromethyl)phenyl)-1H-indole-7-carboxamide], for which the pIC50 was 6.00 to 6.30.

On to `O=C(NO)c1cccc2c1CN(c1nc3cc(C(F)(F)F)c(-c4ccccc4)cc3[nH]1)C2` [Compound 34-1, N-hydroxy-2-(5-phenyl-6-(trifluoromethyl)-1H-benzo[d]imidazol-2-yl)isoindoline-4-carboxamide], for which the pIC50 was greater than 6.30.

With `O=C(NO)c1cccc2c1CN(c1nc3cc(C(F)(F)F)ccc3s1)C2` [Compound 11-1, N-hydroxy-2-(5-(trifluoromethyl)benzo[d]thiazol-2-yl)isoindoline-4-carboxamide], the pIC50 is greater than 6.30.

Take `O=C(NO)c1cccc2c1CN(c1ccccc1)C2` [Compound 42-1, N-hydroxy-2-phenylisoindoline-4-carboxamide]: the pIC50 is less than 6.00.
